{"source": "paper PMC6364417", "about": "“Kinase inhibitor library screening identifies synergistic drug combinations effective in sensitive and resistant melanoma cells” (Journal of Experimental & Clinical Cancer Research : CR, 2019)", "assay_in_all_cases": "Kinase inhibitor library screening, PrestoBlue cell viability, 1 or 10 μM, 72 h", "key": {"[1]": {"test_system": "501Mel-GP cells (Dabrafenib-resistant)", "conditions": "501Mel GP"}, "[2]": {"test_system": "A375-GP cells (Dabrafenib-resistant)", "conditions": "A375 GP"}, "[3]": {"test_system": "501Mel cells (parental)", "conditions": "501Mel Parental", "summary_of_the_method": "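Values are % viability versus untreated wells, measured by PrestoBlue after a 72 h drug exposure. Screens covered the parental line plus sublines rendered resistant to Vemurafenib or Dabrafenib, each analysed in at least duplicate.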"}, "[4]": {"test_system": "A375 cells (parental)", "conditions": "A375 Parental"}, "[5]": {"test_system": "501Mel-XP cells (Vemurafenib-resistant)", "conditions": "501Mel XP"}, "[6]": {"test_system": "A375-XP cells (Vemurafenib-resistant)", "conditions": "A375 XP"}, "[7]": {"test_system": "IGR37 cells (parental)", "conditions": "IGR37 Parental"}, "[8]": {"test_system": "IGR37-GP cells (Dabrafenib-resistant)", "conditions": "IGR37 GP"}, "[9]": {"test_system": "IGR37-XP cells (Vemurafenib-resistant)", "conditions": "IGR37 XP"}}, "data": [{"molecule": "Cc1cnc(Nc2ccc(OCCN3CCCC3)cc2)nc1Nc1cccc(S(=O)(=O)NC(C)(C)C)c1", "note": "[TG101348 (SAR302503)]", "values": [{"measurement": "cell viability, 501Mel GP, 10μΜ", "setting": "[1]; 10μΜ, 72 h, in %", "result": 1.0}, {"measurement": "cell viability, A375 GP, 1μΜ", "setting": "[2]; 1μΜ, 72 h, in %", "result": 89.1}, {"measurement": "cell viability, A375 GP, 10μΜ", "setting": "[2]; 10μΜ, 72 h, in %", "result": 15.0}, {"measurement": "cell viability, 501Mel Parental, 1μΜ", "setting": "[3]; 1μΜ, 72 h, in %", "result": 98.7}, {"measurement": "cell viability, 501Mel Parental, 10μΜ", "setting": "[3]; 10μΜ, 72 h, in %", "result": 1.4}, {"measurement": "cell viability, A375 Parental, 1μΜ", "setting": "[4]; 1μΜ, 72 h, in %", "result": 100.2}, {"measurement": "cell viability, A375 Parental, 10μΜ", "setting": "[4]; 10μΜ, 72 h, in %", "result": 12.9}, {"measurement": "cell viability, 501Mel XP, 1μΜ", "setting": "[5]; 1μΜ, 72 h, in %", "result": 89.8}, {"measurement": "cell viability, 501Mel XP, 10μΜ", "setting": "[5]; 10μΜ, 72 h, in %", "result": -0.1}, {"measurement": "cell viability, A375 XP, 1μΜ", "setting": "[6]; 1μΜ, 72 h, in %", "result": 99.7}, {"measurement": "cell viability, A375 XP, 10μΜ", "setting": "[6]; 10μΜ, 72 h, in %", "result": 17.0}, {"measurement": "cell viability, IGR37 Parental, 1μΜ", "setting": "[7]; 1μΜ, 72 h, in %", "result": 98.0}, {"measurement": "cell viability, IGR37 Parental, 10μΜ", "setting": "[7]; 10μΜ, 72 h, in %", "result": 21.1}, {"measurement": "cell viability, IGR37 GP, 10μΜ", "setting": "[8]; 10μΜ, 72 h", "result": 6.2, "unit": "%"}, {"measurement": "cell viability, IGR37 GP, 1μΜ", "setting": "[8]; 1μΜ, 72 h, in %", "result": 95.7}, {"measurement": "cell viability, IGR37 XP, 10μΜ", "setting": "[9]; 10μΜ, 72 h", "result": 2, "unit": "%"}, {"measurement": "cell viability, IGR37 XP, 1μΜ", "setting": "[9]; 1μΜ, 72 h, in %", "result": 94.2}]}, {"molecule": "Cc1ccc(NC(=O)c2cccc(N(C)C)c2)cc1NC(=O)c1ccc(O)cc1", "note": "[ZM 336372]", "values": [{"measurement": "cell viability (kinase inhibitor library screening)", "setting": "[1]; 1μΜ, in %", "result": 108.5}, {"measurement": "cell viability (kinase inhibitor library screening)", "setting": "[1]; 10μΜ, in %", "result": 81.6}, {"measurement": "cell viability (kinase inhibitor library screening)", "setting": "[2]; 10μΜ, in %", "result": 82.7}, {"measurement": "cell viability (kinase inhibitor library screening)", "setting": "[3]; 1μΜ, in %", "result": 98.4}, {"measurement": "cell viability (kinase inhibitor library screening)", "setting": "[3]; 10μΜ, in %", "result": 89.6}, {"measurement": "cell viability (kinase inhibitor library screening)", "setting": "[4]; 1μΜ, in %", "result": 103.4}, {"measurement": "cell viability (kinase inhibitor library screening)", "setting": "[4]; 10μΜ, in %", "result": 91.8}, {"measurement": "cell viability (kinase inhibitor library screening)", "setting": "[5]; 1μΜ, in %", "result": 90.4}, {"measurement": "cell viability (kinase inhibitor library screening)", "setting": "[5]; 10μΜ, in %", "result": 83.5}, {"measurement": "cell viability (kinase inhibitor library screening)", "setting": "[6]; 1μΜ, in %", "result": 103.8}, {"measurement": "cell viability (kinase inhibitor library screening)", "setting": "[6]; 10μΜ, in %", "result": 95.8}, {"measurement": "cell viability (kinase inhibitor library screening)", "setting": "[7]; 1μΜ, in %", "result": 102.6}, {"measurement": "cell viability (kinase inhibitor library screening)", "setting": "[7]; 10μΜ, in %", "result": 105.1}, {"measurement": "cell viability (kinase inhibitor library screening)", "setting": "[8]; 1μΜ, in %", "result": 99.1}, {"measurement": "cell viability (kinase inhibitor library screening)", "setting": "[8]; 10μΜ, in %", "result": 96.2}, {"measurement": "cell viability (kinase inhibitor library screening)", "setting": "[9]; 1μΜ, in %", "result": 108.8}, {"measurement": "cell viability (kinase inhibitor library screening)", "setting": "[9]; 10μΜ, in %", "result": 93.5}]}, {"molecule": "Cn1cc(-c2ccc3ncc(Cc4ccc5ncccc5c4)n3n2)cn1", "note": "[NVP-BVU972]", "values": [{"measurement": "cell viability (kinase inhibitor library screening)", "setting": "[1]; 1μΜ, 72 h", "result": 89.9, "unit": "%"}, {"measurement": "cell viability (kinase inhibitor library screening)", "setting": "[1]; 10μΜ, 72 h", "result": 69.4, "unit": "%"}, {"measurement": "cell viability (kinase inhibitor library screening)", "setting": "[2]; 1μΜ, 72 h", "result": 106.0, "unit": "%"}, {"measurement": "cell viability (kinase inhibitor library screening)", "setting": "[2]; 10μΜ, 72 h", "result": 100.5, "unit": "%"}, {"measurement": "cell viability (kinase inhibitor library screening)", "setting": "[3]; 1μΜ, 72 h", "result": 107.5, "unit": "%"}, {"measurement": "cell viability (kinase inhibitor library screening)", "setting": "[3]; 10μΜ, 72 h", "result": 89.2, "unit": "%"}, {"measurement": "cell viability (kinase inhibitor library screening)", "setting": "[4]; 10μΜ, 72 h", "result": 100.0, "unit": "%"}, {"measurement": "cell viability (kinase inhibitor library screening)", "setting": "[4]; 1μΜ, 72 h", "result": 108.4, "unit": "%"}, {"measurement": "cell viability (kinase inhibitor library screening)", "setting": "[5]; 1μΜ, 72 h", "result": 74.0, "unit": "%"}, {"measurement": "cell viability (kinase inhibitor library screening)", "setting": "[5]; 10μΜ, 72 h", "result": 62.7, "unit": "%"}, {"measurement": "cell viability (kinase inhibitor library screening)", "setting": "[6]; 1μΜ, 72 h", "result": 109.6, "unit": "%"}, {"measurement": "cell viability (kinase inhibitor library screening)", "setting": "[6]; 10μΜ, 72 h", "result": 105.5, "unit": "%"}, {"measurement": "cell viability (kinase inhibitor library screening)", "setting": "[7]; 1μΜ, 72 h", "result": 104.5, "unit": "%"}, {"measurement": "cell viability (kinase inhibitor library screening)", "setting": "[7]; 10μΜ, 72 h", "result": 96.9, "unit": "%"}, {"measurement": "cell viability (kinase inhibitor library screening)", "setting": "[8]; 1μΜ, 72 h", "result": 108.8, "unit": "%"}, {"measurement": "cell viability (kinase inhibitor library screening)", "setting": "[8]; 10μΜ, 72 h", "result": 87.7, "unit": "%"}, {"measurement": "cell viability (kinase inhibitor library screening)", "setting": "[9]; 1μΜ, 72 h", "result": 110.4, "unit": "%"}, {"measurement": "cell viability (kinase inhibitor library screening)", "setting": "[9]; 10μΜ, 72 h", "result": 86.2, "unit": "%"}]}, {"molecule": "CCc1cc(Nc2nccc(-c3c(-c4ccc(OC)c(C(=O)Nc5c(F)cccc5F)c4)nc4ccccn34)n2)c(OC)cc1N1CCC(N2CCN(S(C)(=O)=O)CC2)CC1", "note": "[GSK1904529A]", "values": [{"measurement": "cell viability, 501Mel GP, 1μΜ", "setting": "[1]; 1μΜ, 72 h, in %", "result": 109.2}, {"measurement": "cell viability, 501Mel GP, 10μΜ", "setting": "[1]; 10μΜ, 72 h, in %", "result": 89.5}, {"measurement": "cell viability, A375 GP, 1μΜ", "setting": "[2]; 1μΜ, 72 h, in %", "result": 98.4}, {"measurement": "cell viability, A375 GP, 10μΜ", "setting": "[2]; 10μΜ, 72 h, in %", "result": 92.6}, {"measurement": "cell viability, 501Mel Parental, 1μΜ", "setting": "[3]; 1μΜ, 72 h, in %", "result": 99.4}, {"measurement": "cell viability, 501Mel Parental, 10μΜ", "setting": "[3]; 10μΜ, 72 h, in %", "result": 98.3}, {"measurement": "cell viability, A375 Parental, 10μΜ", "setting": "[4]; 10μΜ, 72 h, in %", "result": 94.0}, {"measurement": "cell viability, 501Mel XP, 1μΜ", "setting": "[5]; 1μΜ, 72 h, in %", "result": 93.0}, {"measurement": "cell viability, 501Mel XP, 10μΜ", "setting": "[5]; 10μΜ, 72 h, in %", "result": 82.3}, {"measurement": "cell viability, A375 XP, 1μΜ", "setting": "[6]; 1μΜ, 72 h, in %", "result": 104.6}, {"measurement": "cell viability, A375 XP, 10μΜ", "setting": "[6]; 10μΜ, 72 h, in %", "result": 97.7}, {"measurement": "cell viability, IGR37 Parental, 1μΜ", "setting": "[7]; 1μΜ, 72 h, in %", "result": 114.5}, {"measurement": "cell viability, IGR37 Parental, 10μΜ", "setting": "[7]; 10μΜ, 72 h, in %", "result": 96.7}, {"measurement": "cell viability, IGR37 GP, 10μΜ", "setting": "[8]; 10μΜ, 72 h", "result": 62.6, "unit": "%"}, {"measurement": "cell viability, IGR37 GP, 1μΜ", "setting": "[8]; 1μΜ, 72 h, in %", "result": 98.3}, {"measurement": "cell viability, IGR37 XP, 10μΜ", "setting": "[9]; 10μΜ, 72 h", "result": 20.4, "unit": "%"}, {"measurement": "cell viability, IGR37 XP, 1μΜ", "setting": "[9]; 1μΜ, 72 h, in %", "result": 98.9}]}]}
